From patent US9511017B2, “Method and composition for use in preparation of a patient for surgery” (priority 2005, dated 2016)

Experiments:
[1] = Transcutaneous penetration / comparative release of active ingredient in horizontal glass Franz-type diffusion cells; format: in vitro ADME; conditions: 2 hrs; 0.5 g sample; mean of duplicates
Description: The transcutaneous penetration and comparative release of active ingredient were compared using a horizontal glass Franz-type diffusion cells such as are described in R. Danids, (Skin Care Forum, Issue 37, August 2004, Cognis); S. Jung, (The University of California Irvine Undergraduate Research Journal, p. 25-26, Vol V, 2002, University of California Irvine); Guideline for Industry Non-sterile Semisolid Dosage Forms (SUPAC-SS CMC7), May 1997, U.S. Department of Health and Human Services FDA CDER. A standard cellophane dialysis membrane of MW cut off 6-8000 was used for the diffusion studies. The Franz cell receiving solution was composed of 50% v/v methanol/water. Cellophane membranes were mounted horizontally in the Franz cells. 0.5 g of sample were used for each test. The cell receptor was continuously stirred magnetically and maintained at 35+/−2° C. At the designated time 150 microliters aliquots were sampled from the receiving vessel of the Franz cells. 20 microliters were injected into HLPC. […]
0.5 g samples of compositions according to examples 2, 3 and 4 were compared over periods of 2, 4 and 7 hours with a prior art composition comprising 5% chlorhexidine in 62% ethyl alcohol. […] Column C, D, and E give the results for the actives in the respective formulations, both in mg and as a % of the sample quantity tested.

[2] = test system: Pseudomonas aeruginosa ATTC 15442; conditions: triclosan alone, known; cited from earlier work

Question: With `[H]/N=C(\N/C(=N/[H])NCCCCCCNC(=N)NC(=N)Nc1ccc(Cl)cc1)Nc1ccc(Cl)cc1` [chlorhexidine] as the compound, how does the “chlorhexidine penetrated, % of the sample quantity tested” value [1] read?
Answer: < 0.24%

Question: What does the source list for `Oc1cc(Cl)ccc1Oc1ccc(Cl)cc1Cl` [triclosan, 2,4,4-trichloro-2-hydroxy-diphenylether]?
Answer: triclosan penetrated, % of the sample quantity tested [1]: 0.24%; effectiveness against Pseudomonas aeruginosa [2]: relatively ineffective
